In US20230089073A1 (Carmot Therapeutics, Inc., priority 2021, published 2023):

Biological target: T1, human GLP-1 receptor (Homo sapiens, UniProt P43220)
T1 construct: expressed in transfected cells
Experiment: GLP-1R cAMP Assay
Type: cell-based
Conditions: cAMP accumulation in CHO cells stably overexpressing the human GLP-1 receptor; 30 min treatment; HitHunter cAMP kit; read-out: EC50
Description: cAMP accumulation was measured in Chinese hamster ovary (CHO) cells stably overexpressing the human GLP-1 receptor using the HitHunter cAMP Assay for Small Molecules Kit (Eurofins). Briefly, cells were grown in Ham's F12 Nutrient Mix with 10% FBS, and lifted with Cell Dissociation Buffer, Enzyme free, PBS based (ThermoFisher). […] The anti-cAMP antibody reagent was then added to cells at a 1:2 ratio and 5 μL of mixture was seeded in 384-well small volume white assay plates, at 10,000 cells/well. Cells were then treated with 50 nL compound using an ECHO 550 acoustic dispenser (Labcyte) in a 20-point dose response format in triplicate for 30 min. Cells were then lysed, and detection reagents added according to the manufacturer's protocol. After overnight incubation, luminescence was measured using a Perkin Elmer Envision plate reader. Dose response curves were analyzed using GraphPad Prism 9.0.

T1 sequence (P43220 24-463): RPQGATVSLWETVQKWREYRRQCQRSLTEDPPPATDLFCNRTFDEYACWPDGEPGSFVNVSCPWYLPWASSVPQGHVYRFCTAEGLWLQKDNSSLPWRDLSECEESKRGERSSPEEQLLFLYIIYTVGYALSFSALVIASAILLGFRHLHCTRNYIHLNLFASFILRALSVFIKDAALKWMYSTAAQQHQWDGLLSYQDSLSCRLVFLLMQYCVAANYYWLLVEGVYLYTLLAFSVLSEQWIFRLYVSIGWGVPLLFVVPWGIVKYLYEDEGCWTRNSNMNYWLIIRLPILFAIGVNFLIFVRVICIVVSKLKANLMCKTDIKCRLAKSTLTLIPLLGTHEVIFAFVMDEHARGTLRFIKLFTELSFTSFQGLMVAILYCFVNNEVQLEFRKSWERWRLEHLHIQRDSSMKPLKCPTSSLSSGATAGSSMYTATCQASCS

Structure (SMILES) | EC50 [nM]
Cc1ccc(Oc2cccc(C(=O)N3CCN(Cc4nc5ccc(C(=O)O)cc5n4C[C@@H]4CCO4)CC3)c2)c(C)c1 [Compound 18, 2-({4-[3-(2,4-dimethylphenoxy)benzoyl]piperazin-1-yl}methyl)-1-{[(2S)-oxetan-2-yl]methyl}-1H-1,3-benzodiazole-6-carboxylic acid] | 50 to 500
Cc1cccc(Oc2ccc(C(=O)N3CCN(Cc4nc5ccc(C(=O)O)cc5n4C[C@@H]4CCO4)CC3)cc2)c1 [Compound 21, 2-({4-[4-(3-methylphenoxy)benzoyl]piperazin-1-yl}methyl)-1-{[(2S)-oxetan-2-yl]methyl}-1H-1,3-benzodiazole-6-carboxylic acid] | > 500
Cc1ccc(Oc2ccc(C(=O)N3CCN(Cc4nc5ccc(C(=O)O)cc5n4C[C@@H]4CCO4)CC3)cc2)cc1 [Compound 22, 2-({4-[4-(4-methylphenoxy)benzoyl]piperazin-1-yl}methyl)-1-{[(2S)-oxetan-2-yl]methyl}-1H-1,3-benzodiazole-6-carboxylic acid] | > 500
COC(=O)c1ccc2nc(CN3CCN(C(=O)c4cccc(Oc5ccc(C)cc5Cl)c4)CC3)n(C[C@@H]3CCO3)c2c1 [Compound 23, methyl 2-({4-[3-(2-chloro-4-methylphenoxy)benzoyl]piperazin-1-yl}methyl)-1-{[(2S)-oxetan-2-yl]methyl}-1H-1,3-benzodiazole-6-carboxylate] | > 500
COC(=O)c1ccc2nc(CN3CCN(C(=O)c4ccc(COc5cccc(Cl)c5C)o4)CC3)n(C[C@@H]3CCO3)c2c1 [Compound 24, methyl 2-[(4-{5-[(3-chloro-2-methylphenoxy)methyl]furan-2-carbonyl}piperazin-1-yl)methyl]-1-{[(2S)-oxetan-2-yl]methyl}-1H-1,3-benzodiazole-6-carboxylate] | > 500
Cc1ccc(Nc2cccc(C(=O)N3CCN(Cc4nc5ccc(C(=O)O)cc5n4C[C@@H]4CCO4)CC3)c2)cc1 [Compound 25, 2-[(4-{3-[(4-methylphenyl)amino]benzoyl}piperazin-1-yl)methyl]-1-{[(2S)-oxetan-2-yl]methyl}-1H-1,3-benzodiazole-6-carboxylic acid] | > 500
O=C(O)c1ccc2nc(CN3CCN(Cc4cc5ccc(-c6ccc(Cl)cc6F)cc5o4)CC3)n(C[C@@H]3CCO3)c2c1 [Compound 28, 2-[(4-{[6-(4-chloro-2-fluorophenyl)-1-benzofuran-2-yl]methyl}piperazin-1-yl)methyl]-1-{[(2S)-oxetan-2-yl]methyl}-1H-1,3-benzodiazole-6-carboxylic acid] | > 500
Cc1ccc(N(C)c2cccc(C(=O)N3CCN(Cc4nc5ccc(C(=O)O)cc5n4C[C@@H]4CCO4)CC3)c2)cc1 [Compound 29, 2-[(4-{3-[methyl(4-methylphenyl)amino]benzoyl}piperazin-1-yl)methyl]-1-{[(2S)-oxetan-2-yl]methyl}-1H-1,3-benzodiazole-6-carboxylic acid] | 50 to 500
Cc1ccc(Cc2cccc(C(=O)N3CCN(Cc4nc5ccc(C(=O)O)cc5n4C[C@@H]4CCO4)CC3)c2)cc1 [Compound 33, 2-[(4-{3-[(4-methylphenyl)methyl]benzoyl}piperazin-1-yl)methyl]-1-{[(2S)-oxetan-2-yl]methyl}-1H-1,3-benzodiazole-6-carboxylic acid] | > 500
Cc1ccc(Oc2cccc(CN3CCN(Cc4nc5ccc(C(=O)O)cc5n4C[C@@H]4CCO4)CC3)c2)cc1 [Compound 35, 2-[(4-{[3-(4-methylphenoxy)phenyl]methyl}piperazin-1-yl)methyl]-1-{[(2S)-oxetan-2-yl]methyl}-1H-1,3-benzodiazole-6-carboxylic acid] | > 500
N#Cc1ccc(OCc2ccc(C(=O)N3CCN(Cc4nc5ccc(C(=O)O)cc5n4C[C@@H]4CCO4)CC3)o2)c(F)c1 [Compound 37, 2-[(4-{5-[(4-cyano-2-fluorophenoxy)methyl]furan-2-carbonyl}piperazin-1-yl)methyl]-1-{[(2S)-oxetan-2-yl]methyl}-1H-1,3-benzodiazole-6-carboxylic acid] | > 500

The next lines start with the values.

EC50 [nM] | Structure (SMILES)
50 to 500 | O=C(O)c1ccc2nc(CN3CCN(C(=O)c4ccc(COc5ccc(Cl)cc5Cl)o4)CC3)n(C[C@@H]3CCO3)c2c1 [Compound 26, 2-[(4-{5-[(2,4-dichlorophenoxy)methyl]furan-2-carbonyl}piperazin-1-yl)methyl]-1-{[(2S)-oxetan-2-yl]methyl}-1H-1,3-benzodiazole-6-carboxylic acid]
> 500 | O=C(O)c1ccc2nc(CN3CCN(C(=O)c4ccc(COc5ccccc5)o4)CC3)n(C[C@@H]3CCO3)c2c1 [Compound 30, 1-{[(2S)-oxetan-2-yl]methyl}-2-({4-[5-(phenoxymethyl)furan-2-carbonyl]piperazin-1-yl}methyl)-1H-1,3-benzodiazole-6-carboxylic acid]
> 500 | O=C(O)c1ccc2nc(CN3CCN(C(=O)c4ccc(COc5ccc(Cl)cc5)o4)CC3)n(C[C@@H]3CCO3)c2c1 [Compound 31, 2-[(4-{5-[(4-chlorophenoxy)methyl]furan-2-carbonyl}piperazin-1-yl)methyl]-1-{[(2S)-oxetan-2-yl]methyl}-1H-1,3-benzodiazole-6-carboxylic acid]
> 500 | Cc1ccc(OCc2ccc(C(=O)N3CCN(Cc4nc5ccc(C(=O)O)cc5n4C[C@@H]4CCO4)CC3)o2)c(Cl)c1 [Compound 38, 2-[(4-{5-[(2-chloro-4-methylphenoxy)methyl]furan-2-carbonyl}piperazin-1-yl)methyl]-1-{[(2S)-oxetan-2-yl]methyl}-1H-1,3-benzodiazole-6-carboxylic acid]
> 500 | O=C(O)c1ccc2nc(CN3CCN(C(=O)c4ccc(COc5ccccc5Cl)o4)CC3)n(C[C@@H]3CCO3)c2c1 [Compound 39, 2-[(4-{5-[(2-chlorophenoxy)methyl]furan-2-carbonyl}piperazin-1-yl)methyl]-1-{[(2S)-oxetan-2-yl]methyl}-1H-1,3-benzodiazole-6-carboxylic acid]
> 500 | O=C(O)c1ccc2nc(CN3CCN(C(=O)c4ccc(COc5cccc(Cl)c5)o4)CC3)n(C[C@@H]3CCO3)c2c1 [Compound 40, 2-[(4-{5-[(3-chlorophenoxy)methyl]furan-2-carbonyl}piperazin-1-yl)methyl]-1-{[(2S)-oxetan-2-yl]methyl}-1H-1,3-benzodiazole-6-carboxylic acid]
50 to 500 | Cc1ccc(OCc2ccc(C(=O)N3CCN(Cc4nc5ccc(C(=O)O)cc5n4C[C@@H]4CCO4)CC3)o2)c(C)c1 [Compound 41, 2-[(4-{5-[(2,4-dimethylphenoxy)methyl]furan-2-carbonyl}piperazin-1-yl)methyl]-1-{[(2S)-oxetan-2-yl]methyl}-1H-1,3-benzodiazole-6-carboxylic acid]
> 500 | Cc1ccc(OCc2ccc(C(=O)N3CCN(Cc4nc5ccc(C(=O)O)cc5n4C[C@@H]4CCO4)CC3)o2)cc1 [Compound 42, 2-[(4-{5-[(4-methylphenoxy)methyl]furan-2-carbonyl}piperazin-1-yl)methyl]-1-{[(2S)-oxetan-2-yl]methyl}-1H-1,3-benzodiazole-6-carboxylic acid]
> 500 | Cc1ccccc1OCc1ccc(C(=O)N2CCN(Cc3nc4ccc(C(=O)O)cc4n3C[C@@H]3CCO3)CC2)o1 [Compound 43, 2-[(4-{5-[(2-methylphenoxy)methyl]furan-2-carbonyl}piperazin-1-yl)methyl]-1-{[(2S)-oxetan-2-yl]methyl}-1H-1,3-benzodiazole-6-carboxylic acid]
